The structures appear in SMILES notation.

The Kd is the concentration at which binding is half-saturated. High values mean weaker binding, low ones tighter binding.

In the experiment the target is T1, MePqqB (Methylobacterium extorquens PqqB, Me PqqB) (Methylorubrum extorquens, UniProt Q49149).
T1 sequence (Q49149 1-299): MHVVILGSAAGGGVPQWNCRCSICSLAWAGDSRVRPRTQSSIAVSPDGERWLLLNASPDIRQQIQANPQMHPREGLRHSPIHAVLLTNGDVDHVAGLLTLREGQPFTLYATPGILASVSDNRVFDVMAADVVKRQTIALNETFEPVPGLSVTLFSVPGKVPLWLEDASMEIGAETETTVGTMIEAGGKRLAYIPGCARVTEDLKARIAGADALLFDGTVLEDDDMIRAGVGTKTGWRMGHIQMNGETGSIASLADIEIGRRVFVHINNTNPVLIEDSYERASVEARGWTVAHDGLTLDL
As to the kind of experiment: isothermal titration calorimetry. It is filed as binding. Background: Isothermal titration calorimetry measures the heat released or taken up as one component is titrated into another.

`N[C@@H](CSc1cc(C[C@H](N)C(=O)O)cc(O)c1O)C(=O)O` [Cys-DOPA] had a Kd of approximately 200 nM.

These data come from paper PMC6944208 (Journal of the American Chemical Society, 2019).
